Data as given in US6387954B1, “Alkenyl sulphonamide derivatives” (Eli Lilly and Company, priority 1998, dated 2002).

Molecular target: T1, human GluR4B receptor (Homo sapiens, UniProt P48058)
T1 construct: expressed in transfected cells; host or cells: HEK293
Test: potentiation of agonist-induced excitability of GluR4B expressed in HEK 293 cells
Type: cell-based
Conditions: human GluR4B receptor expressed in HEK 293 cells
Description: The ability of compounds of formula I to potentiate glutamate receptor-mediated response may be determined using fluorescent calcium indicator dyes (Molecular Probes, Eugene, Oregon, Fluo-3) and by measuring glutamate-evoked […] of calcium into GluR4 transfected HEK293 cells, as described in more detail below.
In one test, 96 well plates containing confluent monolayers of HEK cells stably expressing human GluR4B (obtained as described in European Patent Application Publication Number EP-A1-583917) are prepared. The tissue culture medium in the wells is then discarded, and the wells are each washed once with 200 μl of buffer (glucose, 10 mM, sodium chloride, 138 mM, magnesium chloride, 1 mM, potassium chloride, 5 mM, calcium chloride, 5 mM, N-[2-hydroxyethyl]-piperazine-N-[2-ethanesulfonic acid], 10 mM, to pH 7.1 to 7.3). […]
Each test is then performed as follows. […] A second fluorescent reading is taken after 5 minutes incubation. 15 μl of 400 μM glutamate solution is then added to each well (final glutamate concentration 100 μM), and a third reading is taken. The activities of test compounds and cyclothiazide solutions are determined by subtracting the second from the third reading (fluorescence due to addition of glutamate in the presence or absence of test compound or cyclothiazide) and are expressed relative to enhance fluorescence produced by 100 μM cyclothiazide.

T1 sequence (P48058 21-902): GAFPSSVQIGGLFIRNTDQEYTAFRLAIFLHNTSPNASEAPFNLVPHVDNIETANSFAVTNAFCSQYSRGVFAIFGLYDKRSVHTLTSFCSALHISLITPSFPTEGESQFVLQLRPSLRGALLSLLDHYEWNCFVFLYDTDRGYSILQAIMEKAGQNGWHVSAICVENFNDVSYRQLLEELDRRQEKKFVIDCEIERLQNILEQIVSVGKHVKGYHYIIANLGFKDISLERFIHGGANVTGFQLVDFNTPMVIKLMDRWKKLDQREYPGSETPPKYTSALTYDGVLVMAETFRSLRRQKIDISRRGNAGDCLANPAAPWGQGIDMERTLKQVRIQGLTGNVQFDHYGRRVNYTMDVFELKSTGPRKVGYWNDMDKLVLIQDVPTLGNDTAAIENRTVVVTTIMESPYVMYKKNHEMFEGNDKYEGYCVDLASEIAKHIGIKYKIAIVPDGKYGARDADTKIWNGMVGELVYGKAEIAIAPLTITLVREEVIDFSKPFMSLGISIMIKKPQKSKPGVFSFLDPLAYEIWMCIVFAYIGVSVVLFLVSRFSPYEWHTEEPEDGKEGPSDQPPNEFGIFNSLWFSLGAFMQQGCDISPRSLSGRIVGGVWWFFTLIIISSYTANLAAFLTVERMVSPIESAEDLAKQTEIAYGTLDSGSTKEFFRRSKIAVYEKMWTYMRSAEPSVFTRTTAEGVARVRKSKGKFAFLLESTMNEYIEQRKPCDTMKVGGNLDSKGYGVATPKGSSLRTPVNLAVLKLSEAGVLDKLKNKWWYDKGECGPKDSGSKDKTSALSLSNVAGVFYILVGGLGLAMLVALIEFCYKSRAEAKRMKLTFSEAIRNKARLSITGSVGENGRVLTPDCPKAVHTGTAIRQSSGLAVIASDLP

Q: Which “potentiation of agonist-induced excitability” value does the source give for `NS(=O)(=O)c1cc2c(cc1Cl)NC(C1CC3C=CC1C3)NS2(=O)=O` (stereo not shown) [cyclothiazide] here?
A: potentiate agonist-induced excitability
